Literature values in patent US11638718B2, “Treatment of alphavirus-induced inflammation” (priority 2016, dated 2023).

Test system: alphavirus
Settings: earlier studies by the group (refs 30, 55-57); cited from earlier work

CN(Cc1cnc2nc(N)nc(N)c2n1)c1ccc(C(=O)N[C@@H](CCC(=O)O)C(=O)O)cc1 [methotrexate]
effect on alphavirus disease: increased the onset of RRV-induced musculoskeletal disease
